Experimental findings from paper PMC7576278, “IKKε and TBK1 in diffuse large B‐cell lymphoma: A possible mechanism of action of an IKKε/TBK1 inhibitor to repress NF‐κB and IL‐10 signalling” (Journal of Cellular and Molecular Medicine, 2020) are described below.

The target in one assay is T1, TBK1 (Homo sapiens, UniProt Q9UHD2).
T1 sequence (Q9UHD2 1-729): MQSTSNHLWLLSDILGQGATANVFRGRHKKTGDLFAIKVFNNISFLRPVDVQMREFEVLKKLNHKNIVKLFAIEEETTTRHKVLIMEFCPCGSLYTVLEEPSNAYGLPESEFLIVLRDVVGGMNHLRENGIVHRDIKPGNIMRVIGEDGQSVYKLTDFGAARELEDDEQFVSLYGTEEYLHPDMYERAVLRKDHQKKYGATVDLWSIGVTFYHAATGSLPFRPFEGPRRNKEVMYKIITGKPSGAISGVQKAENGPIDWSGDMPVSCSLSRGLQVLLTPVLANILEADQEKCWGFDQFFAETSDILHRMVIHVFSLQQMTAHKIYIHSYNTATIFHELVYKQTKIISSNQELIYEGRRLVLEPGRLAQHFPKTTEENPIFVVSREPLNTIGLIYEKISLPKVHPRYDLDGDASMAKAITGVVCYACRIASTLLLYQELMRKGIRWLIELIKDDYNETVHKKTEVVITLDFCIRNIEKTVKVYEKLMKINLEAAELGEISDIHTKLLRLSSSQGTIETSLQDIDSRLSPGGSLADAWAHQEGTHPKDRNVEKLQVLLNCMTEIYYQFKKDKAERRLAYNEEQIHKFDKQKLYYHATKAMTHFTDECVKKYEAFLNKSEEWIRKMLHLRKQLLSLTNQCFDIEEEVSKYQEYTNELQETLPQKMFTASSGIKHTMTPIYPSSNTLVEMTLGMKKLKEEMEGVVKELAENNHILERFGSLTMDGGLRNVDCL
Kind of assay: purified enzyme inhibition (pIC50; assay details not given). It counts as biochemical.

The next assay deals with T2, IKKε (Homo sapiens, UniProt Q14164).
T2 construct: gene IKBKE
T2 sequence (Q14164 1-716): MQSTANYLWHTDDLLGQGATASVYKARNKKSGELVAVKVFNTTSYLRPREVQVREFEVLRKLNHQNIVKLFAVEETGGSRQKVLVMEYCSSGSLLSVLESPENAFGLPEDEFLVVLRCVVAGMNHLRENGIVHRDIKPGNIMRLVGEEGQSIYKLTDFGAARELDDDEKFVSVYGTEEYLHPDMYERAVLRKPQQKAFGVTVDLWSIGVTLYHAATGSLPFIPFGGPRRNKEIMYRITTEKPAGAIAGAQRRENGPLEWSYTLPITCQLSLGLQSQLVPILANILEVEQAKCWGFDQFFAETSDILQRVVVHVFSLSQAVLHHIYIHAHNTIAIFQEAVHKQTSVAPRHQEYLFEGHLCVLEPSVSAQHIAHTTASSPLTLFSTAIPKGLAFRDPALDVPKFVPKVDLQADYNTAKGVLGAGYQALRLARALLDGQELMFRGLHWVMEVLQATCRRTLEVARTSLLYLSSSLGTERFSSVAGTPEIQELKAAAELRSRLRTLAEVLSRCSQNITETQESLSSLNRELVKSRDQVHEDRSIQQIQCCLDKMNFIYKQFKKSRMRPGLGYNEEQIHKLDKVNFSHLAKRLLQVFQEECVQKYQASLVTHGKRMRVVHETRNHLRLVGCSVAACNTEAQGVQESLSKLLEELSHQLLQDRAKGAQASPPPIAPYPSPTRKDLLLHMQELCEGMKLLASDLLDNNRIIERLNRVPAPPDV
Described as above. Format: biochemical.

Regarding `N#Cc1cc(-c2ccnc(Nc3ccc(NC(=O)CN4CCOCC4)nc3)n2)cnc1N1CC[C@H](F)C1` [DMX3433], the results for the IC50 on TBK1 and on IKKε were 0.0126 µM and 0.0158 µM, respectively.

The IC50 is the midpoint of a concentration-inhibition curve. High values mean weaker potency in that assay, low ones greater potency in that assay.
